Test results taken from US20240209028A1, “CNP COMPOUNDS” (priority 2022, published 2024).
Starred links: 1 amine or outer side, 2 acyl side, 3 side chain; linkers in the order of their positions; H or OH if unused. Positions of bridges follow the written chain, without caps; N, C: chain ends. Residues, ends and D or L forms follow the SMILES beside them. *: point of attachment. C18 diacid = O=C(O)CCCCCCCCCCCCCCCCC(=O)*; γGlu = O=C(O)[C@H](CCC(=O)[*:2])N[*:1]

Key:
[1] = Accelerated chemical stability (RP-UPLC recovery and LCMS degradation pattern, 37° C.); assay type: physicochemical; design: Isomers TZ / Isomers 2 W / Loss of 18 amu TZ / Loss of 18 amu 2 W / Fragments TZ / Fragments 2 W / Fragments 1 W / Fragments 3 W / Fragments 4 W / Fragments 5 W / Fragments 6 W / Others 1 W / Others 3 W / Others 4 W / Others 5 W / Others 6 W / Isomers 1 W / Isomers 3 W / Isomers 4 W / Isomers 5 W / Isomers 6 W / Loss of 18 amu 1 W / Loss of 18 amu 3 W / Loss of 18 amu 4 W / Loss of 18 amu 5 W / Loss of 18 amu 6 W: unit not given here; conditions: LCMS, 5 mM sodium acetate, 250 mM glycerol, pH 4
Protocol: In order to determine the chemical stability of CNP compounds in formulation, samples of CNP compounds in buffer were exposed to accelerated chemical degradation by heating. The stability of a given peptide was assessed by measuring recovery of intact peptide by quantification by RP-UPLC. To assess the chemical degradation pattern samples were also analysed by LC-MS.
Sample preparation: Samples for the 2 week study were prepared according to the principles described in Example 5.
Samples for the 6 week study were prepared by dissolving lyophilized peptide in buffer (8 mM phosphate, 250 mM glycerol, pH 7.4) to a nominal peptide concentration of 5000 nmol/ml followed by pH adjustment with 0.1 N HCl to pH 6.5.
Incubation: For the 2 week study a time-zero (TZ) sample was pulled and stored at −18° C. and the remaining volume was incubated at 37° C. Samples were pulled and stored at −18° C. after 2 weeks of incubation. Frozen samples were thawed, diluted to about 200 nmol/mL and the extent of chemical degradation was determined using LCMS as described.
For the 6 week study a time-zero (TZ) sample was pulled and stored at −18° C. and the remaining volume was incubated at 37° C. Samples were pulled on a weekly basis and stored at −18° C. until the last sampling time point at 6 weeks. Frozen samples were thawed, diluted to about 200 nmol/mL and the extent of chemical degradation was determined using RP-UPLC and LCMS as described.
Analysis of peptide recovery by RP-UPLC: The RP-UPLC method was performed on a Waters ACQUITY H-CLASS UPLC system fitted with a PDA detector. Separation was carried out on an ACQUITY UPLC BEH C8 Column (130 Å, 1.7 μm, 2.1 mm×150 mm) operating at a column temperature of 50° C. with eluent A (19.59 mM NH4H2PO4 41.71 mM (NH4)2HPO4, pH 6.5 and MeCN 9:1 v:v) and eluent B (80% MeCN in water). UV-detection was carried out at 214 nm. The analysis was performed by injection of 3 μL of sample onto the column which was eluted with a 1-step linear gradient of eluents A and B from 27 to 30% B over 20 minutes followed by a wash at 95% B over 2 minutes followed by a re-equilibration phase for 7 minutes at a constant flow rate of 0.3 mL/min. This yielded an analysis time of 30 minutes per sample. The area of the peak corresponding to intact CNP compound was given on a percentage scale relative to the total peptide peak area.
Analysis of chemical degradation patterns by LCMS: Samples were analysed on a […] UPLC from Thermo Scientific, using a Waters Acquity C18 reversed-phase column, 300 Å, […] particles 1 mm×150 mm. The compounds were separated by a linear gradient of solvent B from 5% to 55% over 48 minutes, using solvent A: water, 0.1% formic acid with 0.02% TFA and solvent B: acetonitrile, 0.1% formic acid with 0.02% TFA. Mass spectra were acquired by a Q Exactive Plus hybrid Quadrupole-Orbitrap mass spectrometer, BioPharma option (Thermo Scientific) interfaced with H-ESI II ion source. Data acquisitions were performed with a m/z 500 to 2000 scan range and a resolution of 30000.
The data list was aggregated into a summed table of the compounds. The table headers were defined as follows: […]
Results: The results from LCMS analysis of a 2 week accelerated degradation study on several CNP compounds of the present invention are summarised in Table 12. The results from RP-UPLC and LCMS analysis of a 6 week accelerated degradation study on CNP compound 9482 (Chem. 137) is summarised in Table 13 and Table 14 respectively.

[2] = PK after i.v. and s.c. administration to Göttingen minipig; conditions: female, Göttingen, minipig, in vivo
Protocol: The purpose of this study was to investigate pharmacokinetic and pharmacodynamic properties after intravenous (i.v.) and subcutaneous (s.c.) administration to Gottingen Minipig and domestic LYD pig, and to estimate bioavailability after s.c. dosing. Quantitative plasma analysis of CNP and cGMP levels were performed as described in
Animals and dosing: The pharmacokinetic and pharmacodynamic studies in Gottingen Minipig or domestic LYD pig were conducted at CRO Minerva Imaging or Novo Nordisk A/S, respectively. CNP compounds were dosed to normal female 1) Gottingen minipigs 6-12 months of age with an average weight of 22 kg or 2) domestic LYD pigs 4-5 months of age with and average weight of 80 kg. At least one week prior to dosing, permanent central venous catheters were implanted for blood sampling and intravenous (i.v.) dosing. For subcutaneous (s.c.) dosing, the pigs were ultrasound scanned and the optimal injection area laterally on the neck marked by a permanent tattoo. An insulin pen (NovoPen Echo or NovoPen 4) and insulin needle (NovoFine 32G/4 mm or NovoTwist 32G/5 mm) were used for accurate deposition of the CNP formulations in the subcutaneous fat tissue with the needle perpendicular to the skin.
CNP compounds were formulated according to the principles in General Methods of Preparation—Method G and were either A) 8 mM sodium phosphate, 250 mM glycerol, pH 6.5, B) 5 mM sodium acetate, 250 mM glycerol, pH 4.0, C) 5 mM sodium acetate, 240 mM propylene glycol, pH=4.0, D) 8 mM sodium phosphate, 250 mM glycerol, pH 7.5 or E) 20 mM sodium phosphate, 223 mM propylene glycol, pH 6.0.
Intravenously, the CNP compounds were dosed at 30-60 nmol/kg to Minipig and 15-43 nmol/kg to domestic pig using formulations A-E. Subcutaneously, the CNP compounds were dosed at 55-62 nmol/kg to Minipig and 20-30 nmol/kg to domestic pig using formulations A-D.
Sampling: Blood samples of approximately 1 mL were collected pre dose and up to 14 days post dose into EDTA-coated tubes (8 mM) for cGMP and CNP compound analysis by LC-MS. In few instances, cGMP was only analysed up to 48 hours post dose after intravenous dosing in domestic LYD pig. The blood samples were kept on wet ice for maximum 30 minutes until centrifugation for 10 minutes at 4° C. and minimum 1500G, and the plasma samples were stored at −20° C. until analysis.
Plasma concentration-time profiles were analyzed by non-compartmental PK analysis using Phoenix WinNonlin 8.1, Pharsight Inc., Mountain View, CA, USA. Calculation of the area under the plasma concentration-time curve (AUC) was based on the “linear up log down” method, and uniform weighting was used for estimation of the terminal rate constant (λz). S.c. bioavailability (F) was calculated as the dose-normalized AUC (AUC/dose) after s.c. administration divided by the AUC/dose after i.v. administration. […]

neprilysin (NEP) = neprilysin (NEP) (Homo sapiens, UniProt P08473); assay: In vitro neprilysin stability; conditions: recombinant human neprilysin (rhNEP), pH 7.4
neprilysin (NEP), sequence (P08473 whole entry): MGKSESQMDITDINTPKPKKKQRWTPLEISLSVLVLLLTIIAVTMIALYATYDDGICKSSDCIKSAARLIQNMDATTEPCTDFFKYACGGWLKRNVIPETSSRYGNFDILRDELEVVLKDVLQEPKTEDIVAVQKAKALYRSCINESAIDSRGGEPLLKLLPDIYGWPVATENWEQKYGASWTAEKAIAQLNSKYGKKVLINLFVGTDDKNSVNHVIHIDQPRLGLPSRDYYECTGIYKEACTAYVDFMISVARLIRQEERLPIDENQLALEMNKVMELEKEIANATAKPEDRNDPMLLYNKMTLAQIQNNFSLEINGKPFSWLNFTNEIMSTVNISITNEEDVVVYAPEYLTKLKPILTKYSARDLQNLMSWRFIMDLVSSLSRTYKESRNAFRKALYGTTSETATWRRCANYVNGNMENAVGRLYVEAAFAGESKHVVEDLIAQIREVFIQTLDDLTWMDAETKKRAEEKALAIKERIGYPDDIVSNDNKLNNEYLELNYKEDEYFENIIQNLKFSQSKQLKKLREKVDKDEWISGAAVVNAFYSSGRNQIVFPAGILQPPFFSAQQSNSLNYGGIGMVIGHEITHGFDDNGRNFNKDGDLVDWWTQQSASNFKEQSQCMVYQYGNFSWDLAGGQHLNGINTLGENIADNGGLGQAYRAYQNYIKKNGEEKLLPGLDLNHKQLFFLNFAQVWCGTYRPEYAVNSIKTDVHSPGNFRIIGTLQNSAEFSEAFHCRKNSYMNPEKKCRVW
Protocol: Therefore, an in vitro neprilysin stability assay was set up to test the neprilysin mediated degradation of selected CNP compounds.
Procedure: In short, the assay buffer consisted of PBS-buffer (pH 7.4, ThermoFisher Scientific) with a final concentration of 0.005% v/v tween 20 (Sigma-Aldrich). Recombinant human neprilysin (rhNEP; R&D Systems) and the CNP compounds were dissolved in assay buffer. Native CNP22 (0065, Chem. 1) was included as positive control on each day of incubation. Initially, the CNP compound (the final concentration was 1000 nM) was pre-incubated in assay buffer for 10 min at 37° C. The assay was started by adding either rhNEP (final concentration was 2 μg protein per mL) or assay buffer (adsorption experiment) and the incubation was conducted at 37° C. […] The mixture was centrifuged at 13000 rpm at 4° C. for 20 minutes. After centrifugation, one volume of supernatant was mixed with one volume of Milli-Q water.
Analysis by LCMS: The mixture was analysed by LCMS using an Acquity UPLC Peptide CSH C18 analytical column from Waters (130 Å, 1.7 μm, 1*50 mm) operated at 60° C. A gradient elution was conducted with a Nexera UHPLC system (Shimadzu) using mobile phase A (consisting of Milli-Q water with 0.1% formic acid) and mobile phase B (consisting of acetonitrile with 0.1% formic acid). The flow was 0.3 ml/min. A zenoTOF 7600 mass spectrometer (Sciex) was used as detector and operated in positive electrospray ionisation mode. Data was recorded in full scan mode (m/z 300-1700).
Calibration curves were prepared in assay buffer and treated as study samples. These samples were used for calculating the concentration of the relevant CNP compound in the in vitro samples. Quality control samples were included. For at least 75% of the standards and QCs, the deviation between nominal and calculated concentration was below 20%.
All incubations were conducted in duplicate. Data was reported as percent remaining at 90 min (based on calculated concentrations) compared to the average concentration in the 0.5-minute time point samples.

In the case of `CC[C@H](C)[C@@H]1NC(=O)[C@H](CCCNC(=N)N)NC(=O)[C@H](CCC(=O)O)NC(=O)[C@H](CC(C)C)NC(=O)[C@@H]2CCCN2C(=O)[C@H](CC(C)C)NC(=O)CNC(=O)[C@H](Cc2ccccc2)NC(=O)[C@@H](NC(=O)CNC(=O)[C@H](CO)NC(=O)[C@H](CO)NC(=O)[C@H](CC(C)C)NC(=O)CNC(=O)[C@H](CCCCN)NC(=O)[C@H](CCCCN)NC(=O)[C@H](CCC(N)=O)NC(=O)[C@H](C)NC(=O)CNC(=O)[C@H](CCCCN)NC(=O)[C@H](Cc2ccc(O)cc2)NC(=O)[C@H](CCCCN)NC(=O)[C@H](CCCNC(=N)N)NC(=O)[C@H](C)NC(=O)[C@H](CCC(N)=O)NC(=O)[C@@H]2CCCN2C(=O)[C@H](Cc2c[nH]cn2)NC(=O)[C@H](CCC(=O)O)NC(=O)[C@H](CCC(N)=O)NC(=O)CC[C@H](NC(=O)CC[C@H](NC(=O)CC[C@H](NC(=O)CC[C@H](NC(=O)CCCCCCCCCCCCCCCCC(=O)O)C(=O)O)C(=O)O)C(=O)O)C(=O)O)CSSC[C@@H](C(=O)O)NC(=O)CNC(=O)[C@H](CC(C)C)NC(=O)CNC(=O)[C@H](CO)NC(=O)[C@H](CC(C)C)NC(=O)[C@H](CO)NC(=O)CNC1=O` [Compound 9483] ({C18 diacid-γGlu-γGlu-γGlu-γGlu}-QEHPQARKYKGAQKKGLSSGCFGLPLERIGSLSGLGC-OH; disulfide 21-37), the “Fragments 2 W” value ([1]; 2 weeks at 37° C.) is reported as 0, the “Isomers 2 W” value ([1]; 2 weeks at 37° C.) is reported as 0 and the “Loss of 18 amu 2 W” value ([1]; 2 weeks at 37° C.) is reported as 0. The Others 2 W ([1]; 2 weeks at 37° C.) was 0.6%, the “Fragments TZ” value ([1]; time zero) was 0 and the “Isomers TZ” value ([1]; time zero) was 0. The “Loss of 18 amu TZ” value ([1]; time zero) was 0, the Others TZ ([1]; time zero) was 0.2% and the clearance ([2]; iv) was 1.04 mL/h/kg. The half-life ([2]; iv) was 88 h, the bioavailability ([2]; sc) was 44% and the half-life ([2]; sc) was 75 h. The remaining at 1.5 h, 1000 nM (neprilysin (NEP)) was 106%.
